The source made the active and inactive calls. The rule behind the calls is not given here.
What was measured:
[1] = test system: BGC-823; assay: Antiproliferative activity against human BGC-823 cells assessed as inhibition of cell proliferation at 3 to 300 uM incubated for 48 hrs by CCK8 assay; format: functional, cell-based; conditions: dose 3-300 µM
[2] = test system: NCI-H460; assay: Antiproliferative activity against human NCI-H460 cells assessed as reduction in cell viability incubated for 48 hrs by CCK8 assay; format: functional, cell-based; conditions: NCI-H460, 48 h
[3] = test system: NCI-H460; assay: Inhibition of colony formation in human NCI-H460 cells at 10 to 30 uM incubated for 24 hrs by giemsa staining based analysis; format: functional, cell-based; conditions: dose 10-30 µM
[4] = test system: A549; assay: Cell cycle arrest in human A549 cells assessed as accumulation of cells at G1 phase at 10 uM incubated for 24 hrs by PI staining based flow cytometric analysis (reference value: 56.42 +/- 1.36 %); format: functional
[5] = test system: NCI-H460; assay: Cell cycle arrest in human NCI-H460 cells assessed as accumulation of cells at G1-S phase at 10 to 30 uM incubated for 24 hrs by PI staining based flow cytometric analysis; format: functional; conditions: dose 10-30 µM
[6] = test system: A549; assay: Cell cycle arrest in human A549 cells assessed as downregulation of cyclin D1 expression at 10 to 30 uM by Western blot analysis; format: functional, cell-based; conditions: dose 10-30 µM
[7] = test system: A549; assay: Cell cycle arrest in human A549 cells assessed as downregulation of CDK4 expression at 10 to 30 uM by Western blot analysis; format: functional, cell-based; conditions: dose 10-30 µM
[8] = test system: NCI-H460; assay: Cell cycle arrest in human NCI-H460 cells assessed as downregulation of cyclin D1 expression at 10 to 30 uM by Western blot analysis; format: functional, cell-based; conditions: dose 10-30 µM
[9] = test system: NCI-H460; assay: Cell cycle arrest in human NCI-H460 cells assessed as downregulation of CDK4 expression at 10 to 30 uM by Western blot analysis; format: functional, cell-based; conditions: dose 10-30 µM
[10] = test system: A549; assay: Induction of apoptosis in human A549 cells assessed as viable cells at 10 uM incubated for 24 hrs by Annexin V-FITC/PI staining based flow cytometric analysis (reference value: 96.29 %); format: functional; conditions: read-out: Activity
[11] = test system: A549; assay: Induction of apoptosis in human A549 cells assessed as early apoptotic cells at 10 uM incubated for 24 hrs by Annexin V-FITC/PI staining based flow cytometric analysis (reference value: 0.44 %); format: functional
[12] = test system: A549; assay: Induction of apoptosis in human A549 cells assessed as late apoptotic cells at 10 uM incubated for 24 hrs by Annexin V-FITC/PI staining based flow cytometric analysis (reference value: 2.29 %); format: functional
[13] = test system: A549; assay: Induction of apoptosis in human A549 cells assessed as viable cells at 30 uM incubated for 24 hrs by Annexin V-FITC/PI staining based flow cytometric analysis (reference value: 96.29 %); format: functional; conditions: read-out: Activity
[14] = test system: A549; assay: Induction of apoptosis in human A549 cells assessed as necrotic cells at 30 uM incubated for 24 hrs by Annexin V-FITC/PI staining based flow cytometric analysis (reference value: 0.97 %); format: functional
[15] = test system: NCI-H460; assay: Induction of apoptosis in human NCI-H460 cells assessed as viable cells at 10 uM incubated for 24 hrs by Annexin V-FITC/PI staining based flow cytometric analysis (reference value: 91.95 %); format: functional; conditions: read-out: Activity
[16] = test system: NCI-H460; assay: Induction of apoptosis in human NCI-H460 cells assessed as early apoptotic cells at 10 uM incubated for 24 hrs by Annexin V-FITC/PI staining based flow cytometric analysis (reference value: 3.22 %); format: functional
[17] = test system: NCI-H460; assay: Induction of apoptosis in human NCI-H460 cells assessed as necrotic cells at 10 uM incubated for 24 hrs by Annexin V-FITC/PI staining based flow cytometric analysis (reference value: 0.68 %); format: functional
[18] = test system: A549; assay: Induction of autophagy in human A549 cells assessed as increase in fluorescence intensity of anti-LC3 incubated for 48 hrs by immunofluorescence staining based analysis; format: functional, cell-based; conditions: dose 10-30 µM
[19] = test system: A549; assay: Induction of autophagy in human A549 cells assessed as increase in LC3-II expression at 10 to 30 uM incubated for 24 hrs by Western blot analysis; format: functional, cell-based; conditions: dose 10-30 µM
[20] = test system: A549; assay: Induction of autophagy in human A549 cells assessed as increase in Atg5 expression at 10 to 30 uM incubated for 24 hrs by Western blot analysis; format: functional, cell-based; conditions: dose 10-30 µM
[21] = test system: NCI-H460; assay: Induction of autophagy in human NCI-H460 cells assessed as increase in Atg5 expression at 10 to 30 uM incubated for 24 hrs by Western blot analysis; format: functional, cell-based; conditions: dose 10-30 µM
[22] = test system: A549; assay: Inhibition of Akt/mTOR signalling pathway in human A549 cells assessed as decrease in mTOR expression by Western blot analysis; format: cell-based; conditions: dose 10-30 µM
[23] = test system: A549; assay: Inhibition of Akt/mTOR signalling pathway in human A549 cells assessed as decrease in c-myc expression by Western blot analysis; format: cell-based; conditions: dose 10-30 µM
[24] = test system: NCI-H460; assay: Inhibition of Akt/mTOR signalling pathway in human NCI-H460 cells assessed as decrease in phosphorylated P70 S6k expression by Western blot analysis; format: cell-based; conditions: dose 10-30 µM
[25] = test system: NCI-H460; assay: Inhibition of Akt/mTOR signalling pathway in human NCI-H460 cells assessed as decrease in phosphorylated 4EBP1 expression by Western blot analysis; format: cell-based; conditions: dose 10-30 µM
[26] = test system: NCI-H460; assay: Inhibition of Akt/mTOR signalling pathway in human NCI-H460 cells assessed as decrease in c-myc expression by Western blot analysis; format: cell-based; conditions: dose 10-30 µM
[27] = test system: A549; assay: Inhibition of Akt/mTOR signaling pathway in human A549 cells assessed as decrease in phosphorylated 4EBP1 expression in presence of temsirolimus by Western blot analysis; format: cell-based
[28] = test system: NCI-H460; assay: Inhibition of Akt/mTOR signaling pathway in human NCI-H460 cells assessed as decrease in phosphorylated 4EBP1 expression in presence of temsirolimus by Western blot analysis; format: cell-based
[29] = test system: A549; assay: Antiproliferative activity against human A549 cells assessed as inhibition of cell proliferation in presence of temsirolimus by CCK8 assay; format: functional, cell-based
[30] = test system: NCI-H460; assay: Antiproliferative activity against human NCI-H460 cells assessed as inhibition of cell proliferation in presence of temsirolimus by CCK8 assay; format: functional, cell-based
[31] = test system: Gefitinib-resistant A549/G cell; assay: Inhibition of Akt/mTOR signaling pathway in human Gefitinib-resistant A549/G cell assessed as decrease in mTOR expression in presence of gefitinib by Western blot analysis; format: cell-based
[32] = test system: Gefitinib-resistant A549/G cell; assay: Inhibition of Akt/mTOR signaling pathway in human Gefitinib-resistant A549/G cell assessed as decrease in phosphorylated 4EBP1 expression in presence of gefitinib by Western blot analysis; format: cell-based
[33] = test system: Gefitinib-resistant A549/G cell; assay: Inhibition of Akt/mTOR signaling pathway in human Gefitinib-resistant A549/G cell assessed as decrease in phosphorylated […] in presence of gefitinib by Western blot analysis; format: cell-based
[34] = test system: NCI-H460; assay: Induction of apoptosis in human NCI-H460 cells assessed as viable cells at 30 uM incubated for 24 hrs by Annexin V-FITC/PI staining based flow cytometric analysis (reference value: 91.95 %); format: functional; conditions: read-out: Activity
[35] = test system: NCI-H460; assay: Induction of apoptosis in human NCI-H460 cells assessed as late apoptotic cells at 30 uM incubated for 24 hrs by Annexin V-FITC/PI staining based flow cytometric analysis (reference value: 4.15 %); format: functional
[36] = test system: NCI-H460; assay: Induction of apoptosis in human NCI-H460 cells assessed as necrotic cells at 30 uM incubated for 24 hrs by Annexin V-FITC/PI staining based flow cytometric analysis (reference value: 0.68 %); format: functional

Compound: N#C[Se]CCCNC(=O)c1cccnc1
- Activity [1]: inactive
- IC50 [2]: 17.4 µM
- inhibition [3]: Active
- Activity [4]: 75.43%
- Activity [5]: Active
- Activity [6]: Active; G1 Phase Cell Cycle Arrest Observed
- Activity [7]: Active; G1 Phase Cell Cycle Arrest Observed
- Activity [8]: Active; G1 Phase Cell Cycle Arrest Observed
- Activity [9]: Active; G1 Phase Cell Cycle Arrest Observed
- viability at 10 µM [10]: 84.8%
- Activity [11]: 3.66%
- Activity [12]: 8.48%
- viability at 30 µM [13]: 75.9%
- Activity [14]: 5.12%
- viability at 10 µM [15]: 81.5%
- Activity [16]: 5.81%
- Activity [17]: 3.73%
- Activity [18]: Dose-dependent-effect
- Activity [19]: Active
- Activity [20]: Active
- Activity [21]: Active
- inhibition [22]: Dose-dependent-effect; Inhibitory Ability Of Compound Is Comparable To Temsirolimus
- inhibition [23]: Dose-dependent-effect; Inhibitory Ability Of Compound Is Comparable To Temsirolimus
- inhibition [24]: Dose-dependent-effect; Inhibitory Ability Of Compound Is Comparable To Temsirolimus
- inhibition [25]: Dose-dependent-effect; Inhibitory Ability Of Compound Is Comparable To Temsirolimus
- inhibition [26]: Dose-dependent-effect; Inhibitory Ability Of Compound Is Comparable To Temsirolimus
- inhibition [27]: Active
- inhibition [28]: Active
- Activity [29]: Active
- Activity [30]: Active
- inhibition [31]: Active
- inhibition [32]: Active
- inhibition [33]: Active
- viability at 30 µM [34]: 74.7%
- Activity [35]: 13.81%
- Activity [36]: 5.22%

— ChEMBL document CHEMBL6083206, “SLL-1A-16 suppresses proliferation and induces autophagy in non-small-cell lung cancer cells via the AKT/mTOR signaling pathway” (RSC Med Chem, 2024)
